The values below come from US20110318424A1, “METHODS FOR PROLONGING VIABILITY OF CONE CELLS USING MODULATORS OF THE MAMMALIAN TARGET OF RAPAMYCINE (mTOR)” (PRESIDENT AND FELLOWS OF HARVARD COLLEGE, priority 2008, published 2011).

“Also recorded” adds a separate entry of the source.

One series has as its system HIF-1α. As to the kind of experiment: HIF-1α immunofluorescence on retinal flat mounts of treated PDE-β−/− mice. It is filed as in vivo, mouse. The following applies: PDE-β−/− mice treated for 4 weeks. The procedure:
Rapamycin, Streptozotocin and Insulin treatments were performed as follows. Rapamycin was diluted to 10 mg/ml in ethanol. The stock was diluted to 0.015 mg/ml in drinking water over a period of 2 weeks. A single intraperitoneal injection of 150 μl (12 mg/ml in 0.1M citric acid, ph4.5) of Streptozotocin was injected at postnatal day (P) 21. Insulin was injected intraperitoneally daily starting at P21. The concentration was increased weekly such that the first week, 10 U/kg body weight, the second 15 U/kg, the third 20 U/kg and fourth 30 U/kg body weight, were injected. In the treatment that lasted 7 weeks 30 U/kg body weight were injected for the remaining 3 weeks. Blood glucose levels were measured by collecting a drop of blood from the tail directly onto a test strip from TrueTrack smart system (CVS pharmacy). […]
(§1) Whole mount and section antibody staining were performed as previously (Punzo, C. & Cepko, C. L. (2008) Dev Dyn 237, 1034-42) described with the following modifications. […] Time points analyzed for the rod and cone death kinetics (P: postnatal day; PW: postnatal week): PDE-β−/−: P10-P20 daily, PW3-10 weekly, PW 12, PW15, PW18, PW45; PDE-γ-KO: P10-P20 daily, PW3-PW10 weekly, PW15, PW25, PW45; Rho-KO: PW4-PW8 weekly, PW10, PW11, PW17, PW20, PW25, PW27, PW31, PW34, PW37, PW45, PW55, PW80; P23H: PW5, PW10, PW16, PW25, PW30, PW35, PW40, PW65, PW70, PW75, PW80, PW85.

In a further series the test system is cones of PDE-β−/− mice. Nature of the series: Cone survival in PDE-β−/− mice after systemic insulin or streptozotocin treatment (lacZ staining of retinal flat mounts). The settings on record: for cone survival: 4 weeks of treatment from PW3, read at PW7, versus uninjected control; for cone survival after prolonged treatment: 7 weeks of treatment from PW3, read at PW10, versus untreated. It is filed as in vivo, mouse. Here is the method: Rapamycin, Streptozotocin and Insulin treatments were performed as follows. Rapamycin was diluted to 10 mg/ml in ethanol. The stock was diluted to 0.015 mg/ml in drinking water over a period of 2 weeks. A single intraperitoneal injection of 150 μl (12 mg/ml in 0.1M citric acid, ph4.5) of Streptozotocin was injected at postnatal day (P) 21. Insulin was injected intraperitoneally daily starting at P21. The concentration was increased weekly such that the first week, 10 U/kg body weight, the second 15 U/kg, the third 20 U/kg and fourth 30 U/kg body weight, were injected. In the treatment that lasted 7 weeks 30 U/kg body weight were injected for the remaining 3 weeks. Blood glucose levels were measured by collecting a drop of blood from the tail directly onto a test strip from TrueTrack smart system (CVS pharmacy). Eye bleeds were avoided due to the fact that cell survival in the retina was being assayed.
Quantification of cone survival was performed as follows. The colors of the bright light image were inverted and processed with Imaris software (Bitplane Inc) to calculate the percentage of blue surface area versus the total retinal surface area (see also FIG. 17). A minimum of 8 retinae per treatment, and for the control, were analyzed. P-values were calculated by the student's t-test.

The next series concerns p*-mTOR in dorsal cones. As to the kind of experiment: Retinal explant culture of wild type mice, p*-mTOR immunofluorescence. Type of series: cell-based, mouse. The settings on record: wild type retinal explants, 4 hours, absence of glucose, leucine added at 200 μM. Here is the method:
Retinal explant cultures: The retina was dissected free from other ocular tissues in DMEM, and then incubated in conditions according to the chart in FIG. 10a. Regular DMEM was at 4.5 g/L glucose, low glucose was at 1 g/L, leucine was added at 200 μM and FCS at 10%. Incubation was performed for 4 h and the retinae were fixed and processed for antibody staining as described below.
as §1, with “modifications. Antibody staining for LAMP-2: Triton was replaced with 0.01% Saponin. Antibody staining for p*-mTOR and p*-S6: PBS was replaced by TBS in every step of the procedure.” for “modifications.”

Series [1] relates to photoreceptors (rods and cones) of rd10 mouse. The settings on record: cited from earlier work.

insulin: in the series on HIF-1α, the “upregulation of HIF-1α in cones” value is “did not show the upregulation of HIF-1α; also recorded: prevented the upregulation of HIF-1α”. In the series with cones of PDE-β−/− mice, the cone survival entry was “improved cone survival; also recorded: prolonged cone survival” and the “cone survival after prolonged treatment” value is given as “did not show any significant improvement of cone survival; also recorded: no significant difference in cone survival”.
`CC(C)C[C@H](N)C(=O)O` [leucine]: the “dorsal p*-mTOR with increased leucine” value in the series on p*-mTOR in dorsal cones is reported as “abolished”.
On to `CN(N=O)C(=O)N[C@H]1C(O)O[C@H](CO)[C@@H](O)[C@@H]1O` (mixture of isomers) [streptozotocin], for which, in the series on cones of PDE-β−/− mice, the cone survival entry is listed as “decrease in cone survival” and the “cone survival after prolonged treatment” value is given as “no significant difference in cone survival”.
Consider proinsulin, for which the hyperglycemia entry in series [1] (mice treated with proinsulin) is reported as “did not develop hyperglycemia”. The photoreceptor death result in series [1] (rd10 mouse, constitutive expression, rods and cones) is listed as “delays photoreceptor death”.
